According to publication PMC11612144, “Deep quantification of substrate turnover defines protease subsite cooperativity” (Molecular Systems Biology, 2024):
No end group written: not given here.

Experiments:
[1] = target: C. elegans DPF-3 (DPP8/9-orthologue), full-length, recombinant (C. elegans); assay: cryo-EM structure; single particle cryo-EM of full-length DPF-3 alone (apo), ~0.3 mg/ml and 2.5% glycerol, grids blotted at 4 °C; homodimer
[2] = target: T1, hDPP4 (Homo sapiens, UniProt P27487); assay: In vitro protease assay by mass spectrometry: cleavage of synthetic GLP-1 N-terminal peptides by hDPP4 over time; assay type: in vitro ADME; conditions: hDPP4 1 µg in 100 µl, peptide 1 pmol/µl, 21 °C, LC-MS, Fig. 4A; for product formation upon digestion with hDPP4 (in words): 30-120 min, three technical replicates
T1 construct: purchased Abcam ab79138
Protocol: Synthetic peptides representing either wild-type or mutated GLP-1 were purchased from Thermo Fisher Scientific and their cleavage by DPP4 was measured over time. Briefly, the lyophilized peptides were dissolved in TBS buffer supplemented with 2 mM TCEP to obtain a stock solution with a final concentration of 0.1 nmol/µl. 1ug of DPP4 and each peptide at a final concentration of 1 pmol/µl were used in reactions at a final volume of 100 µl. To distinguish the products, the four peptides were pooled into two groups. One group contained GLP-1 wt (HAE ([…])) & GLP-1 H1D, E3P (DAP ([…])) and the other group GLP-1 H1D (DAE ([…])) & GLP-1 E3P (HAP ([…])). The assay was performed at 21 °C, aliquots (20 µl) were taken out at the indicated times and mixed with 180 µl of 0.1% trifluoroacetic acid, 2 mM TCEP, 2% acetonitrile in water to stop the reaction.
The peptides were analyzed by capillary liquid chromatography tandem mass spectrometry (LC-MS) using an Orbitrap Fusion LUMOS, a VanquishNeo-nLC, and a 75umx15cm EasyC18 column kept at 45 °C and mounted on a easy source (Thermo Fisher Scientific). Peptides were loaded on a 0.3 × 5 mm C18 trap using a back flash method for elution. Peptides were separated with a gradient of 0–0.2 min 2–6%B in A, 0.2–4.2 min 6–21%, 4.2–6.2 min 21–30%, 6.2–6.7 min 30–36%, 6.7–7.2 min 36–45%, 7.2–7.5 min 45%-100%, 7.5-12 min 100%. A: 0.1% FA in H2O; B: 0.1% FA, 80% MeCN in H2O, at room temperature and the flow rate during the gradient was 200 nl/min and for the last 4.4 min 350 nl/min. The data were acquired using 120,000 resolution for the peptide measurements in the Orbitrap and a top T (1.5 s) method with HCD fragmentation for each precursor and fragment measurement in the ion trap following the manufacturer guidelines (Thermo Scientific).

[3] = test system: GLP-1 receptor; conditions: compared with GLP-1(7-37); ref Mentlein et al, 1993; Muller et al, 2019; cited from earlier work
Description: To achieve clinical utility, GLP ...

T1 sequence (P27487 whole entry): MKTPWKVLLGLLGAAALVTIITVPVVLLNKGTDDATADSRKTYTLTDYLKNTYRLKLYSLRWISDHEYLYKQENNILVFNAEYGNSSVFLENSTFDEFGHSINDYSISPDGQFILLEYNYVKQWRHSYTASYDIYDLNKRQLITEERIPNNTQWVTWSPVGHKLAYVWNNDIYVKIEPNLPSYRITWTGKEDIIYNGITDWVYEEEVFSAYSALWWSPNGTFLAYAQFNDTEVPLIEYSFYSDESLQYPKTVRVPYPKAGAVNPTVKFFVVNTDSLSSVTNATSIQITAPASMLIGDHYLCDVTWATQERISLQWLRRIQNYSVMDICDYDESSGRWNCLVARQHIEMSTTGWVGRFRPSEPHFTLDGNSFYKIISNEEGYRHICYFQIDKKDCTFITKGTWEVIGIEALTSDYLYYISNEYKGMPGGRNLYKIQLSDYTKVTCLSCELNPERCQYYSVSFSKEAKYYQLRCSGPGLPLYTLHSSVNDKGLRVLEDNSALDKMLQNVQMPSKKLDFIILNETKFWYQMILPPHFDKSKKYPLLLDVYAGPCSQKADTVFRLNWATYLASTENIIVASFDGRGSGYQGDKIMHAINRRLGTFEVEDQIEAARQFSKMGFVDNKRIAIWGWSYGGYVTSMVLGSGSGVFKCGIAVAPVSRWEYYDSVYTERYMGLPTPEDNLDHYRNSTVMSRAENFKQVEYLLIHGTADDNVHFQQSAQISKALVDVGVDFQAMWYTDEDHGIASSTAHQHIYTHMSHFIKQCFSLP

Row | Substance | product formation upon digestion with hDPP4 (in words) [2] | also measured
1 | C. elegans DPF-3 (DPP8/9-orthologue), full-length, recombinant (enzyme) | – | stoichiometry N [1]: 2
2 | DAEGTFTSDVSR [DAE] | greatly decreased product levels at all time points and continued product accumulation over 120 min | –
3 | DAPGTFTSDVSR [DAP] | completely abrogated product formation | –
4 | GLP-1(9-37): DPP4-processed GLP-1 peptide (EGTFTSDVSSYLEGQAAKEFIAWLVKGRG; Glucagon-like peptide 1; UniProt P01275 100-128, looked up, fragment) | – | affinity to its receptor (in words) [3]: reduced affinity
5 | HAEGTFTSDVSR [HAE, reference compound] | – | time within which product formation was essentially complete [2]: ≤ 30 min
6 | HAPGTFTSDVSR [HAP] | completely abrogated product formation | –
